“And” between values parts separate entries of the source, which are not always exact repeats. Identical values can stand only once.
How the values were obtained:
[1] = test system: human liver microsomes; experiment: ZB716 remaining in human liver microsomes with and without CYP-specific chemical inhibitors; conditions: HLM
[2] = test system: CYP1A2; experiment: CYP induction (enzyme activity) in cryopreserved human hepatocytes, CYP1A2; conditions: for fold induction at 72 h, 0.15 µM / fold induction at 72 h, 1.5 µM / fold induction at 72 h, 5 µM / fold induction at 72 h, 15 µM: human, plated cryopreserved human hepatocytes
[3] = molecular target: CYP2C19 (Homo sapiens, UniProt P33261); experiment: CYP inhibition in human liver microsomes, CYP2C19; assay type: in vitro ADME; conditions: HLM, marker substrate Mephenytoin
Method: . The inhibition of CYP2B6 and 3A4 (when midazolam was used as the substrate) by ZB716 was not observed. The inhibitory potential of ZB716 on human CYP enzyme activities appears relatively low.
The final concentrations of ZB716 in the incubation system were 0, 0.05, 0.15, 0.5, 1.5, 5, and 15 µM (final organic solvent concentration ≤ 1%). […] . […] The concentrations of the isoform-specific metabolites derived from marker substrates were measured by UPLC–MS/MS. The IC50 values were calculated from the percentages of the rate of the metabolite formation relative to non-inhibited controls vs. the concentrations of ZB716 or positive control inhibitors. All incubations were performed in triplicate. The mean of the enzyme activity (% of non-inhibited control) for each concentration was plotted against the log inhibitor concentration, and fitted to an IC50 curve.

[4] = molecular target: CYP2D6 (Homo sapiens, UniProt P10635); experiment: CYP phenotyping, recombinant CYP2D6
[5] = Metabolic stability in human hepatocytes; assay type: in vitro ADME
Method: (§1) Hepatocytes of humans (#X008001), dogs (#M00205), rats (#M00005), and mice (#M005052) were purchased from BioIVT, NY, USA. Monkey hepatocytes were procured from RILD, Shanghai, China. The metabolic stability of ZB716 in human, monkey, dog, rat and mouse hepatocytes was investigated by incubating ZB716 with human, monkey, dog, rat, and mouse hepatocytes (0.5 × 10^6 cells/mL), or with incubation medium only.
(§2) parent disappearance vs. incubation time curve.
(§3) Scaled-up Clint = kV/N × Scaling Factor
(§4) metabolite formed during the reaction.

[6] = test system: human hepatocytes; experiment: Metabolic stability in human hepatocytes; assay type: in vitro ADME; conditions: 1 μM
Method: as §1, §2, §3, §4

[7] = Plasma protein binding by equilibrium dialysis, human; assay type: in vitro ADME; conditions: plasma (EDTA-K2 as anticoagulant)
Method: (§5) The in vitro binding of ZB716 to plasma proteins was determined by equilibrium dialysis technique in mouse, rat, dog, monkey, and human plasma (EDTA-K2 as anticoagulant), over the concentration range of 0.1–10 μM. The free concentration of ZB716 was below the lower limit of quantitation at 0.1, 1, and 10 μM in human, monkey, dog, rat, and mouse plasma.
(§6) The equilibrium dialysis method was used to investigate the in vitro binding of ZB716 to human, monkey, dog, rat, and mouse plasma proteins. The dialysis phosphate buffer solution (100 mM, pH 7.4) and plasma samples containing 0.1, 1, and 10 μM of ZB716 were added to separate chambers of dialysis wells of the HTDialysis device. The dialysis plate was placed in an incubator at 37 °C with 5% CO2 at approximately 100 rpm for 6 h. After incubation, the seal was removed, and 50 μL each of post-dialysis samples was pipetted from both the buffer and plasma chambers into fresh 96-well plates. The samples were analyzed via UPLC–MS/MS. The bound fraction, unbound fraction, recovery (%), and remaining (%) were calculated by Equations (2)–(5):%Unbound = (Conc.buffer chamber/Conc.plasma chamber) × 100(2) %Bound = 100% − %Unbound (3) %Recovery = (Conc.buffer chamber + Conc.plasma chamber)/Conc.Total sample × 100 (4) %Remaining = Conc.6h/Conc.0h × 100 (5)

[8] = test system: human plasma proteins; experiment: as above; assay type: in vitro ADME; conditions: for Remaining: 6 h
Method: as §5, §6

[9] = molecular target: CYP2E1 (Homo sapiens, UniProt P05181); experiment: CYP phenotyping, recombinant CYP2E1
[10] = test system: dog plasma proteins; experiment: Plasma protein binding by equilibrium dialysis, dog; assay type: in vitro ADME; conditions: for Remaining: 6 h
Method: as §5, §6

[11] = as above; assay type: in vitro ADME; conditions: plasma (EDTA-K2 as anticoagulant)
Method: as §5, §6

[12] = 2 µM ZB716, with CYP1A2 inhibitor Furafylline
[13] = 2 µM ZB716, with CYP2A6 inhibitor Tranylcypromine
[14] = 2 µM ZB716, with CYP2B6 inhibitor Ticlopidine
[15] = 2 µM ZB716, with CYP2C8 inhibitor Montelukast
[16] = 2 µM ZB716, with CYP2C9 inhibitor Sulfaphenazole
[17] = 2 µM ZB716, with CYP2C19 inhibitor N-3-benzylnirvanol
[18] = 2 µM ZB716, with CYP2D6 inhibitor Quinidine
[19] = 2 µM ZB716, with CYP3A inhibitor Ketoconazole

CYP2D6, sequence (P10635 whole entry): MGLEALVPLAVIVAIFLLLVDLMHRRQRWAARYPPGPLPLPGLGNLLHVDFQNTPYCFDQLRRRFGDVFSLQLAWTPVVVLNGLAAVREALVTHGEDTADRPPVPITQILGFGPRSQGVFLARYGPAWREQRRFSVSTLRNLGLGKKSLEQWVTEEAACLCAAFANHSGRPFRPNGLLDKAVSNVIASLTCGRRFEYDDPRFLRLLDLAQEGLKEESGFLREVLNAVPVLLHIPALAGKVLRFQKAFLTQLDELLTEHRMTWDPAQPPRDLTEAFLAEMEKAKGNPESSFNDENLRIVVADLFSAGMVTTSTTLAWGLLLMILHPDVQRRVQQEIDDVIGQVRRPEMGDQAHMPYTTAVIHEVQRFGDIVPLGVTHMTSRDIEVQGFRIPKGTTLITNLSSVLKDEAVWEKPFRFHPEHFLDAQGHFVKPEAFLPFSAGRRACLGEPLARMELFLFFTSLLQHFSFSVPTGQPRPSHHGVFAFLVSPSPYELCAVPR
CYP2E1, sequence (P05181 whole entry): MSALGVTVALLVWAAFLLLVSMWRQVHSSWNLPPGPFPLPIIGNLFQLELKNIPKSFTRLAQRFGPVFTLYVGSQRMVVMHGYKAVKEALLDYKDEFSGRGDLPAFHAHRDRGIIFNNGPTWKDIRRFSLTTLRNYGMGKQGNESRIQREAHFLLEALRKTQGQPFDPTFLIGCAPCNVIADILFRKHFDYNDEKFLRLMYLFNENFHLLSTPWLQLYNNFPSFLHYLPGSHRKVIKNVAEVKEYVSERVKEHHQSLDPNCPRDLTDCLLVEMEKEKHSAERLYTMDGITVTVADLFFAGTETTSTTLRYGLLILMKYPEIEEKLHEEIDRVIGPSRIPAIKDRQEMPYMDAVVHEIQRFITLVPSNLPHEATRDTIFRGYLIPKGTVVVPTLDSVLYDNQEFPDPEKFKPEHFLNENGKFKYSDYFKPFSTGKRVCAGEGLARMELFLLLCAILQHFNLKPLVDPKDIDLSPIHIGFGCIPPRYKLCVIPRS
CYP2C19, sequence (P33261 whole entry): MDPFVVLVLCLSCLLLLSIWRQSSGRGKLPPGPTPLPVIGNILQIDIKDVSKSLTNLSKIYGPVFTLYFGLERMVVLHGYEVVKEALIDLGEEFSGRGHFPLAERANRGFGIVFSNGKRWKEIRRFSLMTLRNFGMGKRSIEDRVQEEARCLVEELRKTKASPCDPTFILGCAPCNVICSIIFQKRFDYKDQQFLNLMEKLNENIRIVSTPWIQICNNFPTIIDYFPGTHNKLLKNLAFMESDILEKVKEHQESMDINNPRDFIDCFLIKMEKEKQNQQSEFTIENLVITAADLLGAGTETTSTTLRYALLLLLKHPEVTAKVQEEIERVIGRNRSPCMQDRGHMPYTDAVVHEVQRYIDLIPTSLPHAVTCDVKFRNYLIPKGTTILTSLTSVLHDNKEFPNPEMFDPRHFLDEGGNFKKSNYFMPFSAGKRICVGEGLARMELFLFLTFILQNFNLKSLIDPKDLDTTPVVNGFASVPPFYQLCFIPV

In the case of C[C@]12CC[C@@H]3c4ccc(B(O)O)cc4C[C@@H](CCCCCCCCC[S+]([O-])CCCC(F)(F)C(F)(F)F)[C@H]3[C@@H]1CC[C@@H]2O (stereo partly drawn) [ZB716, fulvestrant-3-boronic acid], the Inhibition % ([1]; 2 µM ZB716, Without Inhibitor) is reported as 0.00%, the “Remaining Percentage (%) at 15 min” value ([1]; 2 µM ZB716, Without Inhibitor) is reported as 18.7 ± 1.2% and the “Remaining Percentage (%) at 60 min” value ([1]; 2 µM ZB716, Without Inhibitor) is reported as 5.74 ± 0.52%. The Inhibition % [1, 12] was −48.9%, the “Remaining Percentage (%) at 15 min” value [1, 12] was 8.24 ± 0.80% and the “Remaining Percentage (%) at 60 min” value [1, 12] was 1.43 ± 0.51%. The Inhibition % [1, 13] was −14.4%, the “Remaining Percentage (%) at 15 min” value [1, 13] was 14.8 ± 2.5% and the “Remaining Percentage (%) at 60 min” value [1, 13] was 5.24 ± 2.31%. For the same compound, the Inhibition % [1, 14] was −9.46%, the “Remaining Percentage (%) at 15 min” value [1, 14] was 15.9 ± 0.8% and the “Remaining Percentage (%) at 60 min” value [1, 14] was 2.09 ± 0.23%. The Inhibition % [1, 15] was −15.1%, the “Remaining Percentage (%) at 15 min” value [1, 15] was 14.6 ± 2.4% and the “Remaining Percentage (%) at 60 min” value [1, 15] was 3.41 ± 0.30%. The Inhibition % [1, 16] was −31.8%, the “Remaining Percentage (%) at 15 min” value [1, 16] was 10.9 ± 0.1% and the “Remaining Percentage (%) at 60 min” value [1, 16] was 2.31 ± 0.18%. For the same compound, the Inhibition % [1, 17] was −22.5%, the “Remaining Percentage (%) at 15 min” value [1, 17] was 12.8 ± 1.2% and the “Remaining Percentage (%) at 60 min” value [1, 17] was 3.10 ± 0.44%. For the same compound, the Inhibition % [1, 18] was 74.7%, the “Remaining Percentage (%) at 15 min” value [1, 18] was 65.6% and 65.6 ± 6.0% and the Inhibition % [1, 19] was 88.2%. The “Remaining Percentage (%) at 15 min” value [1, 19] was 74.4% and 74.4 ± 5.8%, the “Remaining Percentage (%) at 60 min” value [1, 19] was 43.4 ± 2.8% and the “Percent of Control” value ([2]; donor one, 0.15 µM) was 2.92%. For the same compound, the “Percent of Control” value ([2]; donor one, 1.5 µM) was 18.4%, the “Percent of Control” value ([2]; donor one, 5 µM) was 73.6% and the “Percent of Control” value ([2]; donor one, 15 µM) was 80.0%. The “Percent of Control” value ([2]; donor three, 0.15 µM) was 3.78%, the “Percent of Control” value ([2]; donor three, 1.5 µM) was 45.0% and the “Percent of Control” value ([2]; donor three, 5 µM) was 41.6%. For the same compound, the “Percent of Control” value ([2]; donor three, 15 µM) was 20.3%, the “Percent of Control” value ([2]; donor two, 0.15 µM) was 0.777% and the “Percent of Control” value ([2]; donor two, 1.5 µM) was 8.38%. The “Percent of Control” value ([2]; donor two, 5 µM) was 17.4%, the “Percent of Control” value ([2]; donor two, 15 µM) was 12.6% and the fold induction at 72 h, 0.15 µM ([2]; donor one, 0.15 µM) was 1.24 ± 0.1. The fold induction at 72 h, 1.5 µM ([2]; donor one, 1.5 µM) was 2.52 ± 0.17, the fold induction at 72 h, 5 µM ([2]; donor one, 5 µM) was 7.09 ± 0.78 and the fold induction at 72 h, 15 µM ([2]; donor one, 15 µM) was 7.62 ± 1.63. The fold induction at 72 h, 0.15 µM ([2]; donor three, 0.15 µM) was 1.2 ± 0.22, the fold induction at 72 h, 1.5 µM ([2]; donor three, 1.5 µM) was 3.42 ± 0.2 and the fold induction at 72 h, 5 µM ([2]; donor three, 5 µM) was 3.24 ± 0.53. For the same compound, the fold induction at 72 h, 15 µM ([2]; donor three, 15 µM) was 2.09 ± 0.49, the fold induction at 72 h, 0.15 µM ([2]; donor two, 0.15 µM) was 1.11 ± 0.05 and the fold induction at 72 h, 1.5 µM ([2]; donor two, 1.5 µM) was 2.17 ± 0.03. The fold induction at 72 h, 5 µM ([2]; donor two, 5 µM) was 3.44 ± 0.18, the fold induction at 72 h, 15 µM ([2]; donor two, 15 µM) was 2.77 ± 0.34 and the IC50 [3] was 2.2 µM. For the same compound, the half-life at 2 µM ([4]; human) was 18.3 ± 3.3 min, the Clint ([4]; recombinant CYP2D6, 2 µM ZB716) was 0.773 µL/min/pmol CYP and 0.773 ± 0.142 µL/min/pmol CYP and the half-life at 1 μM ([5]; read-out: Estimated In Vitro t1/2) was 34.9 ± 1 min. The hepatocyte CLint at 1 μM ([5]; read-out: In Vitro Clint) was 39.7 ± 1.1 µL/min/1e6 cells, the CLint scaled at 1 μM ([5]; read-out: Scaled-Up Clint) was 101 ± 3 mL/min/kg and the “Remaining at 120 min” value [6] was 7.98 ± 0.7%. For the same compound, the recovery at 6 h, 0.1 μM ([7]; pH 7.4, 0.1 μM) was under 69.1%, the recovery at 6 h, 1 μM ([7]; pH 7.4, 1 μM) was under 64% and the recovery at 6 h, 10 μM ([7]; pH 7.4, 10 μM) was under 74.7%. The Bound ([8]; 0.1 μM) was over 95.7%, the Unbound ([8]; 0.1 μM) was under 4.33% and the Remaining ([8]; 0.1 μM) was 57.0 ± 7.7%. The Bound ([8]; 1 μM) was over 99.6%, the Unbound ([8]; 1 μM) was under 0.392% and the Remaining ([8]; 1 μM) was 57.9 ± 4.9%. The Bound ([8]; 10 μM) was over 99.96%, the Remaining ([8]; 10 μM) was 74.5 ± 3.4% and the half-life at 2 µM ([9]; human) was 19.4 ± 1.2 min. For the same compound, the Clint ([9]; recombinant CYP2E1, 2 µM ZB716) was 0.716 ± 0.044 µL/min/pmol CYP, the Bound ([10]; 0.1 μM) was over 95.6% and the Remaining ([10]; 0.1 μM) was 39.1 ± 1.8%. For the same compound, the Bound ([10]; 1 μM) was over 99.6%, the Unbound ([10]; 1 μM) was under 0.373% and the Remaining ([10]; 1 μM) was 53.2 ± 4.4%. The Bound ([10]; 10 μM) was over 99.96%, the Unbound ([10]; 10 μM) was under 0.0412% and the Remaining ([10]; 10 μM) was 65.2 ± 4.3%. It also gave a recovery at 6 h, 0.1 μM ([11]; pH 7.4, 0.1 μM) of under 63.5%, a recovery at 6 h, 1 μM ([11]; pH 7.4, 1 μM) of under 64.9% and a recovery at 6 h, 10 μM ([11]; pH 7.4, 10 μM) of under 68.7%.
